Measured values reported in patent US11987404B2, “Method for filling containers with a powder” (NTC S.R.L., priority 2019, dated 2024).

What was measured:
Format in all cases: physicochemical
[1] = Dissolution study of mannitol powder in non-carbonated commercial waters; conditions: 150 g of mannitol in 900 ml of water, weakly acidic or neutral pH
Text: The solubility of the mannitol powder was then studied in the following three types of non-carbonated commercial waters: • Sangemini: PH at source 6.2; • Antica Fonte Boario: PH at source 7.0; • Panna Toscana: pH at source 8.0.

[2] = Long term stability 25° C./60% RH in heat-sealed envelope; conditions: long-term stability in the climatic area II
Protocol: (§1) The stability of the mannitol in the form of powder object of the present invention was tested, housed inside a heat-sealed envelope in compostable material. 50 grams of said powder were stored for 6 months at 40° C./75% RH (Test 1) and for 6 months at 25° C./60% RH (Test 2). Checks were made of the parameters indicated in Tables 8 and 9 following the times T0-T6 identified as: T0=moment of insertion of the air-conditioned environment, T1=after one month from the moment T0, T2=after two months from the moment T0, T3=after three months from the time T0, T4=after four months from the time T0, T5=after five months from the time T0, T6=after six months from the time T0.

[3] = Accelerated stability 40° C./75% RH in heat-sealed envelope; conditions: accelerated stability conditions
Protocol: as §1

[4] = Bulk density (Ph. Eur. 2.2.42)
Protocol: As regards the bulk density outlined above, in particular the poured bulk density, such parameter is measured according to the European Pharmacopoeia reference standard (Ph. EUR.), current edition 2.2.42, in force at the priority date of this patent application. In the context of the present invention, the expression “bulk” implies that the powder density value is calculated in a manner formally analogous to an absolute density (such as for a solid body or for a liquid). However, since a powder has empty inter-particle spaces, the total volume occupied by the powder (i.e. its outer bulk), thus including the inter-particle spaces between the various particles, should be taken into account when evaluating bulk density. More precisely, according to the aforementioned standard, a 100 ml class A graduated flask is filled and brought to volume with the powder particles, after which the bulk density is calculated as the ratio between the weight of the powder inside the flask and the volume (100 ml) occupied by that weight of the powder particles. Mannitol powder is a poorly flowing powder, which has a certain tendency, just like all fine powders, to agglomerate under pressure. […]

- complete dissolution time [1]: more than 6 minutes
- measured parameters over the test [2]: remained stable
- measured parameters over the test [3]: remained stable
- transient density ([4]; after passing through 3 mm mesh of the sieve shaker, measured in the laboratory): about 0.73 g/ml
- poured bulk density ([4]; coherent mass before the drum centrifugal sieve shaker): about 0.60 g/ml
Structure (SMILES): OC[C@@H](O)[C@@H](O)[C@H](O)[C@H](O)CO [mannitol, Mannitol]
